Legend:
PDE4 = assay: Inhibition of PDE4 activity ([3H]cAMP hydrolysis, cytosol from human neutrophils); assay type: biochemical; conditions: 0.5 μM cAMP, Motapizone (1 μM) included to suppress PDE3 activity, 15 min at 37° C.
Description: Method for Measuring Inhibition of PDE4 Activity
PDE4 activity was determined as described by Thompson et al. (Adv Cycl Nucl Res 10: 69-92, 1979) with some modifications (Bauer and Schwabe, Naunyn-Schmiedeberg's Arch Pharmacol 311: 193-198, 1980). At a final assay volume of 200 μl (96 well microtiter plates) the assay mixture contained 20 mM Tris (pH 7.4), 5 mM MgCl2, 0.5 μM cAMP, [^3H]cAMP (about 30,000 cpm/assay), the test compound and an aliquot of cytosol from human neutrophils which mainly contains PDE4 activity as described by Schudt et al. (Naunyn-Schmiedeberg's Arch Pharmacol 344: 682-690, 1991); the PDE3-specific inhibitor Motapizone (1 μM) was included to suppress PDE3 activity originating from contaminating platelets. Serial dilutions of the compounds were prepared in DMSO and further diluted 1:100 (v/v) in the assays to obtain the desired final concentrations of the inhibitors at a DMSO concentration of 1% (v/v) which by itself only slightly affected PDE4 activity.
After preincubation for 5 min at 37° C., the reaction was started by the addition of substrate (cAMP) and the assays were incubated for further 15 min at 37° C. 50 μl of 0.2 N HCl was added to stop the reaction and the assays were left on ice for about 10 min. Following incubation with 25 μg 5′-nucleotidase (Crotalus atrox snake venom) for 10 min at 37° C., the assays were loaded on QAE Sephadex A-25 (1 ml bed volume). The columns were eluted with 2 ml of 30 mM ammonium formiate (pH 6.0) and the eluate was counted for radioactivity. Results were corrected for blank values (measured in the presence of denatured protein) which were below 5% of total radioactivity. […] The IC50 -values for the compounds according to the invention for the inhibition of the PDE4 activity were determined from the concentration-inhibition curves by nonlinear-regression.
The inhibitory values determined for the compounds according to the invention follow from the following table A, in which the numbers of the compounds correspond to the numbers of the examples.

| SMILES | melting point | Inhibition of PDE4 acitivity [measured as -logIC50 (mol/l)] (PDE4) |
| --- | --- | --- |
| COc1ccc(C2=NN(C3CCN(C(=O)N4CCOCC4)CC3)C(=O)[C@@H]3CC=CC[C@H]23)cc1OC [compound 13, (4aS,8aR)-4-(3,4-Dimethoxyphenyl)-2-[1-(morpholine-4-carbonyl)-piperidin-4-yl]-4a,5,8,8a-tetrahydro-2H-phthalazin-1-one] | 184 to 185 °C | 10.03 |
| COc1ccc(C2=NN(C3CCN(CC(=O)c4cc(Cl)c(N)c(Cl)c4)CC3)C(=O)[C@@H]3CC=CC[C@H]23)cc1OC.Cl [compound 14, (4aS,8aR)-2-{1-[2-(4-Amino-3,5-dichloro-phenyl)-2-oxo-ethyl]-piperidin-4-yl}-4-(3,4-dimethoxy-phenyl)-4a,5,8,8a-tetrahydro-2H-phthalazin-1-one hydrochloride] | 206 °C (dec.) | 10.33 |
| COc1ccc(C2=NN(C3CCN(Cc4ccccn4)CC3)C(=O)[C@@H]3CC=CC[C@H]23)cc1OC.Cl.Cl [compound 24, (4aS,8aR)-4-(3,4-Dimethoxy-phenyl)-2-(1-pyridin-2-ylmethyl-piperidin-4-yl)-4a,5,8,8a-tetrahydro-2H-phthalazin-1-one dihydrochloride] | 214 to 216 °C | 10.63 |
| COc1ccc(C2=NN(C3CCN(c4ccc([N+](=O)[O-])cc4)CC3)C(=O)[C@@H]3CC=CC[C@H]23)cc1OC [compound 11, (4aS,8aR)-4-(3,4-Dimethoxyphenyl)-2-[1-(4-nitro-phenyl)-piperidin-4-yl]-4a,5,8,8a-tetrahydro-2H-phthalazin-1-one] | 196 to 197 °C | 10.34 |
| COc1ccc(C2=NN(C3CCN(Cc4ccncc4)CC3)C(=O)[C@@H]3CC=CC[C@H]23)cc1OC [compound 12, (4aS,8aR)-4-(3,4-Dimethoxyphenyl)-2-(1-pyridin-4-ylmethyl-piperidin-4-yl)-4a,5,8,8a-tetrahydro-2H-phthalazin-1-one] | 196 to 197 °C | 10.79 |

— patent US7531540B2, “Phthalazinone-piperidino-derivatives as PDE4 inhibitors” (Nycomed GmbH, priority 2001, dated 2009)
